{
  "source": "patent US8414950B2",
  "about": "“High-purity rebaudioside D and low-calorie table top tablet containing the same” (PureCircle Sdn Bhd, priority 2009, dated 2013)",
  "key": {"[1]": {"details": "Table 2; cited from earlier work"}, "[2]": {"details": "cited from earlier work; for Relative sweetness: Table 2, relative to sucrose; for Sweetness potency, times higher than sucrose: related art; for Sweetness power: standard sweetening power, saccharose = 1"}, "[3]": {"details": "Table 2 and related-art text; cited from earlier work"}, "[4]": {"assay": "Quality of taste (sensory attributes)", "text": "Rebaudioside D is isolated and extracted, along with other steviol glycosides, from the Stevia rebaudiana Bertoni plant (“Stevia”), which is commercially cultivated in Japan, Taiwan, Malaysia, South Korea, China, Israel, India, Brazil, Australia, and Paraguay."}, "[5]": {"assay": "Solubility in water", "format": "physicochemical", "details": "high purity Rebaudioside D of the invention; increases with temperature", "text": "Solubility in water is around 0.2% which is increasing with increase in temperature. It precipitates again upon cooling the solution. Highly soluble during chromatographic separation stage and before crystallizing."}, "[6]": {"assay": "Heat and pH stability", "format": "physicochemical"}, "[7]": {"assay": "Solubility in organic solvents", "format": "physicochemical", "text": "Soluble in diluted solutions of methanol, ethanol, n-propanol, and isopropanol.\nInsoluble in acetone, benzene, chloroform, and ether."}, "[8]": {"assay": "Sweetness power / relative sweetness compared with sucrose", "details": "high purity Rebaudioside D of the invention, compared to 10% sucrose solution"}},
  "note": "“Also recorded” adds a separate entry of the source. Where a SMILES comes first, the peptide text is derived from it.",
  "data": [
    {"molecule": "C=C1C[C@@]23CC[C@H]4[C@@](C)(CCC[C@@]4(C)C(=O)O[C@@H]4O[C@H](CO)[C@@H](O)[C@H](O)[C@H]4O)[C@@H]2CC[C@]1(O[C@@H]1O[C@H](CO)[C@@H](O)[C@H](O)[C@H]1O[C@@H]1O[C@H](CO)[C@@H](O)[C@H](O)[C@H]1O)C3", "note": "[Stevioside]", "values": [
      {"measurement": "Solubility in water, %", "setting": "[1]", "value": 0.13, "unit": "%"},
      {"measurement": "Relative sweetness", "setting": "[2]", "value": 210},
      {"measurement": "Sweetness potency, times higher than sucrose", "setting": "[2]", "value": "around 210 times"},
      {"measurement": "Sweetness power", "setting": "[2]", "value": 200},
      {"measurement": "Quality of taste", "setting": "[3]", "value": "Bitter"}
    ]},
    {"molecule": "COc1ccc(CCC(=O)c2c(O)cc(O[C@@H]3O[C@H](CO)[C@@H](O)[C@H](O)[C@H]3O[C@@H]3O[C@@H](C)[C@H](O)[C@@H](O)[C@H]3O)cc2O)cc1O", "note": "[NHDC, neohesperidin dihydrochalcone]", "values": [
      {"measurement": "Sweetness power", "setting": "[2]", "value": 1000}
    ]},
    {"molecule": "OC[C@H]1O[C@@](CO)(O[C@H]2O[C@H](CO)[C@@H](O)[C@H](O)[C@H]2O)[C@@H](O)[C@@H]1O", "note": "[Saccharose]", "values": [
      {"measurement": "Sweetness power", "setting": "[2]", "value": 1}
    ]},
    {"molecule": "C=C1C[C@@]23CC[C@H]4[C@@](C)(CCC[C@@]4(C)C(=O)O[C@@H]4O[C@H](CO)[C@@H](O)[C@H](O)[C@H]4O)[C@@H]2CC[C@]1(O[C@@H]1O[C@H](CO)[C@@H](O)[C@H](O)[C@H]1O[C@@H]1O[C@@H](C)[C@H](O)[C@@H](O)[C@H]1O)C3", "note": "[Dulcoside A]", "values": [
      {"measurement": "Solubility in water, %", "setting": "[1]", "value": 0.58, "unit": "%"},
      {"measurement": "Relative sweetness", "setting": "[2]", "value": 30},
      {"measurement": "Sweetness potency, times higher than sucrose", "setting": "[2]", "value": "around 30 times"},
      {"measurement": "Quality of taste", "setting": "[3]", "value": "Very bitter"}
    ]},
    {"molecule": "C=C1C[C@@]23CC[C@H]4[C@@](C)(CCC[C@@]4(C)C(=O)O[C@@H]4O[C@H](CO)[C@@H](O)[C@H](O)[C@H]4O)[C@@H]2CC[C@]1(O[C@@H]1O[C@H](CO)[C@@H](O)[C@H](O[C@@H]2O[C@H](CO)[C@@H](O)[C@H](O)[C@H]2O)[C@H]1O[C@@H]1O[C@H](CO)[C@@H](O)[C@H](O)[C@H]1O)C3", "note": "[Rebaudioside A]", "values": [
      {"measurement": "Solubility in water, %", "setting": "[1]", "value": 0.80, "unit": "%"},
      {"measurement": "Relative sweetness", "setting": "[2]", "value": "200-400"},
      {"measurement": "Sweetness power", "setting": "[2]", "value": 450},
      {"measurement": "Quality of taste", "setting": "[3]", "value": "most favorable sensory attributes of the four major steviol glycosides; also recorded: Less Bitter"}
    ]},
    {"molecule": "O=C1NS(=O)(=O)c2ccccc21", "note": "[Saccharine]", "values": [
      {"measurement": "Sweetness power", "setting": "[2]", "value": 300}
    ]},
    {"molecule": "C=C1C[C@@]23CC[C@H]4[C@@](C)(CCC[C@@]4(C)C(=O)O[C@@H]4O[C@H](CO)[C@@H](O)[C@H](O)[C@H]4O[C@@H]4O[C@H](CO)[C@@H](O)[C@H](O)[C@H]4O)[C@@H]2CC[C@]1(O[C@@H]1O[C@H](CO)[C@@H](O)[C@H](O)[C@H]1O[C@@H]1O[C@H](CO)[C@@H](O)[C@H](O)[C@H]1O)C3", "note": "[Rebaudioside E]", "values": [
      {"measurement": "Solubility in water, %", "setting": "[1]", "value": 1.70, "unit": "%"},
      {"measurement": "Relative sweetness", "setting": "[2]", "value": 170},
      {"measurement": "Quality of taste", "setting": "[3]", "value": "Like sucrose"}
    ]},
    {"molecule": "C=C1C[C@@]23CC[C@H]4[C@@](C)(CCC[C@@]4(C)C(=O)O)[C@@H]2CC[C@]1(O)C3", "note": "[Steviol]", "values": [
      {"measurement": "Quality of taste", "setting": "[3]", "value": "Very bitter"}
    ]},
    {"molecule": "CC1(C)[C@@H](O[C@H]2O[C@H](C(=O)O)[C@@H](O)[C@H](O)[C@H]2O[C@@H]2O[C@H](C(=O)O)[C@@H](O)[C@H](O)[C@H]2O)CC[C@]2(C)[C@H]3C(=O)C=C4[C@@H]5C[C@@](C)(C(=O)O)CC[C@]5(C)CC[C@@]4(C)[C@]3(C)CC[C@@H]12", "note": "[Glycyrrhizin]", "values": [
      {"measurement": "Sweetness power", "setting": "[2]", "value": 50}
    ]},
    {"molecule": "Rebaudioside B", "values": [
      {"measurement": "Solubility in water, %", "setting": "[1]", "value": 0.10, "unit": "%"},
      {"measurement": "Relative sweetness", "setting": "[2]", "value": 150},
      {"measurement": "Quality of taste", "setting": "[3]", "value": "Bitter"}
    ]},
    {"molecule": "COC(=O)[C@H](Cc1ccccc1)NC(=O)[C@@H](N)CC(=O)O", "note": "[Aspartame] (H-Asp-Phe-OMe)", "values": [
      {"measurement": "Sweetness power", "setting": "[2]", "value": 200}
    ]},
    {"molecule": "C=C1C[C@@]23CC[C@H]4[C@@](C)(CCC[C@@]4(C)C(=O)O[C@@H]4O[C@H](CO)[C@@H](O)[C@H](O)[C@H]4O)[C@@H]2CC[C@]1(O[C@@H]1O[C@H](CO)[C@@H](O)[C@H](O)[C@H]1O)C3", "note": "[Rubusoside]", "values": [
      {"measurement": "Relative sweetness", "setting": "[2]", "value": 110},
      {"measurement": "Quality of taste", "setting": "[3]", "value": "Very bitter"}
    ]},
    {"molecule": "Thaumatin", "values": [
      {"measurement": "Sweetness power", "setting": "[2]", "value": 3000}
    ]},
    {"molecule": "Rebaudioside C", "values": [
      {"measurement": "Solubility in water, %", "setting": "[1]", "value": 0.21, "unit": "%"},
      {"measurement": "Relative sweetness", "setting": "[2]", "value": 30},
      {"measurement": "Sweetness potency, times higher than sucrose", "setting": "[2]", "value": "around 30 times"},
      {"measurement": "Quality of taste", "setting": "[3]", "value": "Bitter"}
    ]},
    {"molecule": "C=C1C[C@@]23CC[C@H]4[C@@](C)(CCC[C@@]4(C)C(=O)O[C@@H]4O[C@H](CO)[C@@H](O)[C@H](O)[C@H]4O[C@@H]4O[C@H](CO)[C@@H](O)[C@H](O)[C@H]4O)[C@@H]2CC[C@]1(O[C@@H]1O[C@H](CO)[C@@H](O)[C@H](O[C@@H]2O[C@H](CO)[C@@H](O)[C@H](O)[C@H]2O)[C@H]1O[C@@H]1O[C@H](CO)[C@@H](O)[C@H](O)[C@H]1O)C3", "note": "[Rebaudioside D]", "values": [
      {"measurement": "Solubility in water, %", "setting": "[1]", "value": 1.00, "unit": "%"},
      {"measurement": "Bitterness and aftertaste / sensory properties", "setting": "[4]; amongst the sweet diterpenoid glycosides of Stevia", "value": "the least bitter, and with the least persistent aftertaste"},
      {"measurement": "Bitterness and aftertaste / sensory properties", "setting": "[4]; amongst the sweet diterpenoid glycosides of Stevia; listed as Rebaudioside 1)", "value": "excellent sensory properties"},
      {"measurement": "Solubility in water", "setting": "[5]", "value": "around 0.2%"},
      {"measurement": "Heat and pH stability", "setting": "[6]", "value": "heat and pH-stable"},
      {"measurement": "Relative sweetness", "setting": "[2]", "value": 220},
      {"measurement": "Solubility in non-alcohol organic solvents", "setting": "[7]; acetone, benzene, chloroform, and ether", "value": "Insoluble"},
      {"measurement": "Solubility in diluted alcohols", "setting": "[7]; diluted solutions of methanol, ethanol, n-propanol, and isopropanol", "value": "Soluble"},
      {"measurement": "times sweeter than sugar", "setting": "[8]", "value": "180-200 times"},
      {"measurement": "Quality of taste", "setting": "[3]", "value": "Like sucrose"}
    ]},
    {"molecule": "CC1=CC(=O)NS(=O)(=O)O1", "note": "[Acesulfame-K]", "values": [
      {"measurement": "Sweetness power", "setting": "[2]", "value": 200}
    ]},
    {"molecule": "OC[C@H]1O[C@H](O[C@]2(CCl)O[C@H](CCl)[C@@H](O)[C@@H]2O)[C@H](O)[C@@H](O)[C@H]1Cl", "note": "[Sucralose]", "values": [
      {"measurement": "Sweetness power", "setting": "[2]", "value": 600}
    ]},
    {"molecule": "C=C1C[C@@]23CC[C@H]4[C@@](C)(CCC[C@@]4(C)C(=O)O)[C@@H]2CC[C@]1(O[C@@H]1O[C@H](CO)[C@@H](O)[C@H](O)[C@H]1O[C@@H]1O[C@H](CO)[C@@H](O)[C@H](O)[C@H]1O)C3", "note": "[Steviolbioside]", "values": [
      {"measurement": "Solubility in water, %", "setting": "[1]", "value": 0.03, "unit": "%"},
      {"measurement": "Relative sweetness", "setting": "[2]", "value": 90},
      {"measurement": "Quality of taste", "setting": "[3]", "value": "Unpleasant"}
    ]},
    {"molecule": "C[C@@H](NC(=O)[C@@H](N)CC(=O)O)C(=O)NC1C(C)(C)SC1(C)C", "note": "[Alitame]", "values": [
      {"measurement": "Sweetness power", "setting": "[2]", "value": 2000}
    ]}
  ]
}
